The values below come from patent US8318467B2, “Inhibitors of GSK-3 and crystal structures of GSK-3β protein and protein complexes” (Vertex Pharmaceuticals Incorporated, priority 2001, dated 2012).

This assay deals with T1, GSK-3β (amino acids 1-420) (Homo sapiens, UniProt P49841).
T1 construct: hexa-histidine tag with thrombin cleavage site (N); made in house
The assay can be described thus: Ki determination for the inhibition of GSK-3 (standard coupled enzyme system). It is filed as biochemical. The settings on record: 20 μM ATP, 300 μM peptide, 20 nM GSK-3β, 30° C.; read-out: Ki (GSK-3 inhibitory activity). Here is the method:
Reactions were carried out in a solution containing 100 mM HEPES (pH 7.5), 10 mM MgCl2, 25 mM NaCl, 300 μM NADH, 1 mM DTT and 1.5% DMSO. […] Reactions were carried out at 30° C. and 20 nM GSK-3β. Final concentrations of the components of the coupled enzyme system were 2.5 mM phosphoenolpyruvate, 300 μM NADH, 30 μg/ml pyruvate kinase and 10 μg/ml lactate dehydrogenase.
An assay stock buffer solution was prepared containing all of the reagents listed above with the exception of ATP and the test compound of interest. The assay stock buffer solution (175 μl) was incubated in a 96 well plate with 5 μl of the test compound of interest at final concentrations spanning 0.002 μM to 30 μM at 30° C. for 10 min. […] The reaction was initiated by the addition of 20 μl of ATP (final concentration 20 μM). Reaction rates were obtained using a Molecular Devices Spectramax plate reader (Sunnyvale, Calif.) over 10 min at 30° C. The Ki values were determined from the rate data as a function of inhibitor concentration.

T1 sequence (P49841 whole entry, the tested form may be a part): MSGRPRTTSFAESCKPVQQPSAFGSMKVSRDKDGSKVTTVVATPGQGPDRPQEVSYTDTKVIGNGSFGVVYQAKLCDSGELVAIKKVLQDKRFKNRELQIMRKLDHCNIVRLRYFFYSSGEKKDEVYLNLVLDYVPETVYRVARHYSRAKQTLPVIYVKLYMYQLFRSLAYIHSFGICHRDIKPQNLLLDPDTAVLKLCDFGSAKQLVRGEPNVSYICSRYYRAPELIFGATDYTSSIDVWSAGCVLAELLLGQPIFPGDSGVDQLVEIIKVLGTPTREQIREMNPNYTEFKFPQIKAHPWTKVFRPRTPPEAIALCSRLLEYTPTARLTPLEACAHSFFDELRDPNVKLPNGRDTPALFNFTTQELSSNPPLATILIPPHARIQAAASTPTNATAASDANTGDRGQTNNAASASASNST

Usually Ki stands for a measure of affinity in units of concentration, obtained from inhibition or displacement. Regarding `Nc1n[nH]c2nnc(-c3ccccc3)c(-c3ccc(Cl)cc3)c12` [Compound 2, 3-Amino-4(4-chlorophenyl)-5-phenyl-1H-pyrazolo[3,4-c]pyridazine], the Ki was > 10000 nM.

In the case of `Cc1cccc(-c2nnc3[nH]nc(N)c3c2-c2ccccc2)c1` [Compound 13, 3-Amino-4-phenyl-5-(3-methyl-phenyl)-1H-pyrazolo[3,4-c]pyridazine], the inhibition constant (Ki) lay within 100 to 10000 nM.

For `CC(=O)Nc1n[nH]c2nnc(-c3ccccc3)c(-c3ccccc3)c12` [Compound 9, N-(4,5-Diphenyl-1H-pyrazolo[3,4-c]pyridazin-3-yl)-acetamide], the Ki lay within 100 to 10000 nM.

Regarding `Nc1n[nH]c2nnc(-c3ccccc3)c(-c3cccc(F)c3)c12` [Compound 6, 3-Amino-4(3-fluorophenyl)-5-phenyl-1H-pyrazolo[3,4-c]pyridazine], the inhibitory constant (Ki) is < 100 nM.

For `Nc1n[nH]c2nnc(-c3ccc(F)cc3)c(-c3ccccc3)c12` [Compound 4, 3-Amino-4-phenyl-5-(4-fluorophenyl)-1H-pyrazolo[3,4-c]pyridazine], the Ki is > 10000 nM.

Consider `Nc1n[nH]c2nncc(-c3ccccc3)c12` [Compound 32, 4-Phenyl-1H-pyrazolo[3,4-c]pyridazin-3-ylamine], for which the Ki was 100 to 10000 nM.

Take `Cc1ccc(-c2nnc3[nH]nc(N)c3c2-c2ccccc2)cc1` [Compound 11, 3-Amino-4-phenyl-5-(4-methyl-phenyl)-1H-pyrazolo[3,4-c]pyridazine]: the Ki was < 100 nM.

`Nc1n[nH]c2nnc(-c3ccccc3Cl)c(-c3ccccc3)c12` [Compound 14, 3-Amino-4-phenyl-5-(2-chloro-phenyl)-1H-pyrazolo[3,4-c]pyridazine]: the Ki was < 100 nM.

On to `Nc1n[nH]c2nnc(-c3ccc(F)cc3)c(-c3ccc(F)cc3)c12` [Compound 3, 3-Amino-4,5-bis(4-fluorophenyl)-1H-pyrazolo[3,4-c]pyridazine], for which the Ki is 100 to 10000 nM.

For the molecule `O=C(Nc1n[nH]c2nnc(-c3ccccc3)c(-c3ccccc3)c12)c1ccccc1` [Compound 10, N-(4,5-Diphenyl-1H-pyrazolo[3,4-c]pyridazin-3-yl)-benzamide], the Ki is 100 to 10000 nM.

For the molecule `Nc1n[nH]c2nnc(-c3ccc(Cl)cc3)c(-c3ccccc3)c12` [Compound 16, 3-Amino-4-phenyl-5-(4-chloro-phenyl)-1H-pyrazolo[3,4-c]pyridazine], the Ki was 100 to 10000 nM.

As for `Nc1n[nH]c2nnc(-c3ccncc3)c(-c3ccccc3)c12` [Compound 7, 3-Amino-4-phenyl-5-(4-pyridyl)-1H-pyrazolo[3,4-c]pyridazine], the Ki is > 10000 nM.

As to `Nc1n[nH]c2nnc(-c3ccccc3F)c(-c3ccccc3)c12` [Compound 15, 3-Amino-4-phenyl-5-(2-fluorophenyl)-1H-pyrazolo[3,4-c]pyridazine], the Ki was < 100 nM.

With `Cc1ccccc1-c1nnc2[nH]nc(N)c2c1-c1ccccc1` [Compound 12, 3-Amino-4-phenyl-5-(2-methyl-phenyl)-1H-pyrazolo[3,4-c]pyridazine], the Ki lay within 100 to 10000 nM.

Consider `Nc1n[nH]c2nnc(-c3ccccc3)c(-c3ccc(F)cc3)c12` [Compound 5, 3-Amino-4-(1-fluorophenyl)-5-phenyl-1H-pyrazolo[3,4-c]pyridazine], for which the Ki is < 100 nM.

In the case of `Nc1n[nH]c2nnc(-c3cccc(F)c3)c(-c3ccccc3)c12` [Compound 8, 3-Amino-4-phenyl-5-(3-fluorophenyl)-1H-pyrazolo[3,4-c]pyridazine], the Ki was < 100 nM.
